# According to ChEMBL document CHEMBL4725372, “Rational Design of Suprastat: A Novel Selective Histone Deacetylase 6 Inhibitor with the Ability to Potentiate Immunotherapy in Melanoma Models” (J Med Chem, 2020):
# Calls of active or inactive are those of the source. The calls are words filed in the database; no cut-off is given here.
# Columns and labels:
# Homo sapiens = species: Homo sapiens; assay: Selectivity index, ratio of IC50 for HDAC1 (unknown origin) to HDAC6 (unknown origin)
# Histone deacetylase 1 = Histone deacetylase 1 (Homo sapiens, UniProt Q13547)
# Description: Inhibition of HDAC1 (unknown origin)
# [1] = molecular target: T1, Protein deacetylase HDAC6 (Homo sapiens, UniProt Q9UBN7)
# T1 sequence (Q9UBN7 whole entry): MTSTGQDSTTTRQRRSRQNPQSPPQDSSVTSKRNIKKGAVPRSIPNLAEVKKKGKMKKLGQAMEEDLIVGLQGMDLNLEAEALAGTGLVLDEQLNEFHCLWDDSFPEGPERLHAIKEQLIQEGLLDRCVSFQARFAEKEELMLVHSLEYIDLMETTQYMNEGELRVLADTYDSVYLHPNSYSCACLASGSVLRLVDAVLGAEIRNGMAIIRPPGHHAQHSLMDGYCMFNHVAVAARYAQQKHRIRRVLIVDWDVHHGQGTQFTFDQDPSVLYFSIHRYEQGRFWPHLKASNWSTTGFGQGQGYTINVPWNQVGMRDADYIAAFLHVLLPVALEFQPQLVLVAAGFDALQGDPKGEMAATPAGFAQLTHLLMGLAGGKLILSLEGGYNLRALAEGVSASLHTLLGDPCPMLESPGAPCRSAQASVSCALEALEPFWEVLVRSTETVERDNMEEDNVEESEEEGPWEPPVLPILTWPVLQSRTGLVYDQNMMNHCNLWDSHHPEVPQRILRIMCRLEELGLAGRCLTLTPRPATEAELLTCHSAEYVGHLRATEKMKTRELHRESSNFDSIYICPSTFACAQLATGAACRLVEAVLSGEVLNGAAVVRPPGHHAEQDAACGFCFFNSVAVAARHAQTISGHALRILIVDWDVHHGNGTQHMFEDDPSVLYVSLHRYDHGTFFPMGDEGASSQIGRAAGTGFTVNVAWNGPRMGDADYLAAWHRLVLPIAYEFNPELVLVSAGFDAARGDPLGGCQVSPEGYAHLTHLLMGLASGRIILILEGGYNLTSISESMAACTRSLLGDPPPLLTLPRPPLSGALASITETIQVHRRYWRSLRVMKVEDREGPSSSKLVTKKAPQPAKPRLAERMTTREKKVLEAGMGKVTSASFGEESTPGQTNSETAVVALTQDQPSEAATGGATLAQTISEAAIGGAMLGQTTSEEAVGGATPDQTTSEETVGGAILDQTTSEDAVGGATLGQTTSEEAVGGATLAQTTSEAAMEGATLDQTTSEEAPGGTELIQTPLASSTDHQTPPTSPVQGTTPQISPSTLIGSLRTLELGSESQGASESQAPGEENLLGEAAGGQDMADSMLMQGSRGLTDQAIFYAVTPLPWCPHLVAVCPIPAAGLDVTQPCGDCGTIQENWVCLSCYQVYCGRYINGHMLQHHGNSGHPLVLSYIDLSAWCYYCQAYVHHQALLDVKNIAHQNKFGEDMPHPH
# Description: Inhibition of HDAC6 (unknown origin)
# [2] = Half life in PBS by LC-MS/MS analysis; type: physicochemical
# [3] = Half life in SGF by LC-MS/MS analysis; type: ADME
# [4] = Half life in human plasma at 10 uM by LC-MS/MS analysis; type: ADME, cell-free
# [5] = Half life in rat liver microsome at 10 uM by LC-MS/MS analysis; type: ADME; settings: liver microsomes
# [6] = Protein binding in human plasma at 10 uM incubated for 1 hr by LC-MS/MS analysis; type: ADME, cell-free; settings: read-out: PPB (converted)
# [7] = molecular target: T2, Protein deacetylase HDAC6 (Homo sapiens) (UniProt Q9UBN7); assay: Inhibition of human HDAC6 in human WM164 cells increase in acetylated alpha-tubulin levels at 0.1 to 10 uM by immunoblot analysis; type: cell-based; settings: dose microM 0.1-10
# T2 sequence (whole entry): T1 sequence (Q9UBN7 whole entry)
# [8] = molecular target: Histone deacetylase (Homo sapiens) (UniProt Q13547+O15379+Q9UBN7+Q92769+Q9UQL6+Q8WUI4+Q9BY41+Q96DB2+P56524+Q9UKV0+Q969S8); assay: Inhibition of human HDAC in human WM164 cells increase in acetylated histone H3 levels at 0.1 to 10 uM by immunoblot analysis; type: cell-based; settings: dose microM 0.1-10
# [9] = molecular target: T2, Protein deacetylase HDAC6 (Homo sapiens); assay: Inhibition of human HDAC6 in human WM164 cells assessed as decrease in STAT3 Y705 phosphorylation at 5 uM pre-incubated before IL6 stimulation for 20 mins by immunoblot analysis; type: cell-based
# SM1 [10] = assay: Potentiation of antitumor immune response in C57BL/6 mouse harboring mouse SM1 cells assessed as decrease in tumor burden at 25 mg/kg, ip dosed 5 days per week before starting 15 mg/kg, ip anti-PD1 immune checkpoint blockade therapy measured on day 14; type: functional, organism-based; settings: time 14.0 day
# SM1 [11] = assay: Potentiation of antitumor immune response in C57BL/6 mouse harboring mouse SM1 cells assessed as decrease in tumor burden at 25 mg/kg, ip dosed 5 days per week before starting 15 mg/kg, ip anti-PD1 immune checkpoint blockade therapy measured on day 20; type: functional, organism-based; settings: time 20.0 day
# Histone deacetylase 11 = molecular target: T3, Histone deacetylase 11 (Homo sapiens, UniProt Q96DB2); assay: Inhibition of human HDAC11 expressed in HEK293/T17 cells pre-incubated for 10 mins before […] addition and measured after 30 mins by fluorescence-based assay; type: cell-based
# T3 sequence (Q96DB2 whole entry): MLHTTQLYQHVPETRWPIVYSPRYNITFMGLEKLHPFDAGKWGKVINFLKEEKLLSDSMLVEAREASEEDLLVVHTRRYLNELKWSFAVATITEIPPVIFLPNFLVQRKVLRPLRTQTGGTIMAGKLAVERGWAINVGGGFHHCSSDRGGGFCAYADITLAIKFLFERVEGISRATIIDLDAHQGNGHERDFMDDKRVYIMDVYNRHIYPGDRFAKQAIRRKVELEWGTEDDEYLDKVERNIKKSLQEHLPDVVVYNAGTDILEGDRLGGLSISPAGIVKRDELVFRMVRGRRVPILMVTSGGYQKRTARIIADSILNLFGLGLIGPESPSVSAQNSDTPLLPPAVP
# HEK293 [12] = assay: Selectivity index, ratio of IC50 for human HDAC1 expressed in HEK293/T17 cells (unknown origin) to human HDAC6 expressed in HEK293/T17 cells; type: cell-based
# HEK293 [13] = assay: Selectivity index, ratio of IC50 for human HDAC2 expressed in HEK293/T17 cells (unknown origin) to human HDAC6 expressed in HEK293/T17 cells; type: cell-based
# HEK293 [14] = assay: Selectivity index, ratio of IC50 for human HDAC3 expressed in HEK293/T17 cells (unknown origin) to human HDAC6 expressed in HEK293/T17 cells; type: cell-based
# HEK293 [15] = assay: Selectivity index, ratio of IC50 for human HDAC4 expressed in HEK293/T17 cells (unknown origin) to human HDAC6 expressed in HEK293/T17 cells; type: cell-based
# HEK293 [16] = assay: Selectivity index, ratio of IC50 for human HDAC5 expressed in HEK293/T17 cells (unknown origin) to human HDAC6 expressed in HEK293/T17 cells; type: cell-based
# HEK293 [17] = assay: Selectivity index, ratio of IC50 for human HDAC6 expressed in HEK293/T17 cells (unknown origin) to human HDAC6 expressed in HEK293/T17 cells; type: cell-based
# HEK293 [18] = assay: Selectivity index, ratio of IC50 for human HDAC7 expressed in HEK293/T17 cells (unknown origin) to human HDAC6 expressed in HEK293/T17 cells; type: cell-based
# HEK293 [19] = assay: Selectivity index, ratio of IC50 for human HDAC8 expressed in HEK293/T17 cells (unknown origin) to human HDAC6 expressed in HEK293/T17 cells; type: cell-based
# HEK293 [20] = assay: Selectivity index, ratio of IC50 for human HDAC9 expressed in HEK293/T17 cells (unknown origin) to human HDAC6 expressed in HEK293/T17 cells; type: cell-based
# SM1 [21] = assay: Cytotoxicity in mouse SM1 cells assessed as reduction in cell viability up to 25 uM; type: functional, cell-based; settings: dose microM <=25
# Sequence of Histone deacetylase 1 (Q13547 whole entry): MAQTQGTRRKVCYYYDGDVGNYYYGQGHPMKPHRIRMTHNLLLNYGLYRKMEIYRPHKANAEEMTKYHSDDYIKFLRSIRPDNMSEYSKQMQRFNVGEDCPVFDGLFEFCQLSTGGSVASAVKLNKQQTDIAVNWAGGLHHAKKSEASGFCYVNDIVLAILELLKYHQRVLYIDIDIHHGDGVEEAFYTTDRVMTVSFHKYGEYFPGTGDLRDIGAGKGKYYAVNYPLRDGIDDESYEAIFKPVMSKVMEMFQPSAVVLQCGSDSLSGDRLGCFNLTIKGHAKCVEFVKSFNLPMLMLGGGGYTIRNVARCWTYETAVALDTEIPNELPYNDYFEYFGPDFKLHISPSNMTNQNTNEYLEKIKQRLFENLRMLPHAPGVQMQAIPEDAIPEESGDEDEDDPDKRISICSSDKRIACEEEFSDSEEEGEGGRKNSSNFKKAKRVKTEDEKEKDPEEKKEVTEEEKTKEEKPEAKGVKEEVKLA
Structure (SMILES),Ratio IC50 (Homo sapiens),IC50 (Histone deacetylase 1),IC50 [1],half-life [2],half-life [3],half-life at 10 µM [4],half-life at 10 µM [5],"fraction unbound at 1 h, 10 µM [6]",inhibition [7],inhibition [8],IC50 (Histone deacetylase 11),Ratio IC50 (HEK293 [12]),Ratio IC50 (HEK293 [13]),Ratio IC50 (HEK293 [14]),Ratio IC50 (HEK293 [15]),Ratio IC50 (HEK293 [16]),Ratio IC50 (HEK293 [17]),Ratio IC50 (HEK293 [18]),Ratio IC50 (HEK293 [19]),Ratio IC50 (HEK293 [20]),further results
O=C(NO)c1ccc(CN(CCCO)C(=O)Cc2ccccc2)cc1,36,1.13 µM,0.031 µM,,,,,,,,,,,,,,,,,,
O=C(NO)c1cnc(NC2(c3ccccc3)CCC(F)(F)CC2)nc1,260,,,,,,,,,,,,,,,,,,,,
C[C@H](NC(=O)[C@H](CC(=O)NC(C)(C)C)NC(=O)c1ccc(C(=O)NO)cc1)C(=O)NCc1ccccc1,26,6.9 µM,0.27 µM,,,,,,,,,,,,,,,,,,
CCCCN(Cc1ccc(C(=O)NO)cc1)C(=O)Nc1ccc(CN)cc1,,,,> 24 h,> 5 h,> 5 h,2.88 h,0.53,Dose-dependent effect,Active,> 50 µM,89,312,492,25700,11200,1,10000,682,19200,

# Second part, led by results:
Ratio IC50 (Homo sapiens),IC50 (Histone deacetylase 1),IC50 [1],half-life [2],half-life [3],half-life at 10 µM [4],half-life at 10 µM [5],"fraction unbound at 1 h, 10 µM [6]",inhibition [7],inhibition [8],IC50 (Histone deacetylase 11),Structure (SMILES),Ratio IC50 (HEK293 [12]),Ratio IC50 (HEK293 [13]),Ratio IC50 (HEK293 [14]),Ratio IC50 (HEK293 [15]),Ratio IC50 (HEK293 [16]),Ratio IC50 (HEK293 [17]),Ratio IC50 (HEK293 [18]),Ratio IC50 (HEK293 [19]),Ratio IC50 (HEK293 [20]),further results
,,,> 24 h,> 5 h,> 5 h,7.05 h,0.11,Dose-dependent effect,Active,,CCCCN(Cc1ccc(C(=O)NO)cc1)C(=O)Nc1ccccc1 [NEXTURASTAT A],,,,,,,,,,inhibition [9]: Active; TGI (SM1 [10]): Active; Activity (SM1 [11]): Active
,,,> 24 h,> 5 h,> 5 h,3.3 h,0.52,Dose-dependent effect,Active,> 50 µM,O=C(NO)c1ccc(CN(CCCCO)C(=O)Nc2ccccc2)cc1,296,536,1160,27900,18300,1,3870,956,59500,Activity (SM1 [21]): inactive
